Values of other authors in patent US20200330379A1, “NON-ORAL CANNABINOID FORMULATION AND METHOD OF TREATMENT” (Navinta NV, Inc., priority 2019, published 2020).

Details: limited by first-pass metabolism

CCCCCc1cc(O)c2c(c1)OC(C)(C)[C@@H]1CCC(C)=C[C@@H]21 [THC, (6aR,10aR)-6,6,9-trimethyl-3-pentyl-6a,7,8,10a-tetrahydro-6H-benzo[c]-chromen-1-ol]
Oral bioavailability: 10% and 20
